Measurements as given in ChEMBL document CHEMBL5614369, “Design, synthesis and biological evaluation of Nrf2 modulators for the treatment of glioblastoma multiforme” (Bioorg Med Chem, 2024).
Activity calls are given as the source filed them. The calls are words filed in the database; no cut-off is given here.

Experiments:
U-87 MG [1] = assay: Antitumor activity against human U87 cells assessed as residual cell viability at 100 uM incubated for 48 hrs by CCK-8 assay relative to control; assay type: functional, U-87MG ATCC
U-87 MG [2] = assay: Cytotoxicity against human U87 cells assessed as reduction in cell count at 12.5 to 200 uM incubated for 48 hrs by crystal violet staining based microscopic analysis; assay type: functional; details: U-87MG ATCC, dose 12.5-200 µM
U-87 MG [3] = assay: Anti-tumor activity against human U87 cells assessed as reduction in cell proliferation by measuring reduction in green fluorescence intensity at 50 to 100 uM incubated for 48 hrs by Calcein AM dye based fluorescence microscopy; assay type: functional; details: U-87MG ATCC, dose 50-100 µM
U-87 MG [4] = assay: Antitumor activity against human U87 cells assessed as reduction in cell viability incubated for 48 hrs by CCK-8 assay; assay type: functional, cell-based, U-87MG ATCC

Row | IC50 (U-87 MG [4]) | SMILES | Activity (U-87 MG [1]) | Activity (U-87 MG [2]) | Activity (U-87 MG [3]) | Activity (U-87 MG [4]; U-87MG ATCC)
1 | 89 µM | Oc1cc(O)cc(/C=C/c2ccccc2)c1 [PINOSYLVIN] | 90% | Active | Active | Dose-Dependent Effect
2 | – | Cn1nnc2c(C(N)=O)ncn2c1=O [TEMOZOLOMIDE] | 47% | – | – | –
